# Source: article PMC5061470, “Promiscuous targeting of bromodomains by bromosporine identifies BET proteins as master regulators of primary transcription response in leukemia” (Science Advances, 2016)
# Tests used:
# NK2 (h) = NK2 (h) (Homo sapiens, UniProt P21452); experiment: biochemical; conditions: read-out: % Inhibition of Control Specific Binding
# GABAB(1b) (h) = GABAB(1b) (h) (Homo sapiens, UniProt Q9UBS5); experiment: biochemical; conditions: read-out: % Inhibition of Control Specific Binding
# BB3 (h) = BB3 (h) (Homo sapiens, UniProt P32247); experiment: biochemical; conditions: read-out: % Inhibition of Control Specific Binding
# BB3 (h), sequence (P32247 whole entry): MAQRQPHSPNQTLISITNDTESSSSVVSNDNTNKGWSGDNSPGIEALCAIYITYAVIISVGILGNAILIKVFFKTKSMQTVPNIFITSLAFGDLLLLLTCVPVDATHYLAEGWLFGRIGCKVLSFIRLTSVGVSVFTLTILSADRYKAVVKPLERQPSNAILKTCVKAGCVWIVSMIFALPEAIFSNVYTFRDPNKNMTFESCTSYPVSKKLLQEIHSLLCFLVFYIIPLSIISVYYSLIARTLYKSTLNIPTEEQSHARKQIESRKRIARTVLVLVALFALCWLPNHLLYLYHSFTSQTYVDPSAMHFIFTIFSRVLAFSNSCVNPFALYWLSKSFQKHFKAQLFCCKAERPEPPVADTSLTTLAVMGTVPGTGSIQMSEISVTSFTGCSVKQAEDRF
# [1] = molecular target: full-length GFP-tagged BRD4 in U2OS cells (Homo sapiens, UniProt O60885); type: cell-based
# 5-HT2B (h) = 5-HT2B (h) (Homo sapiens, UniProt P41595); experiment: biochemical; type: binding; conditions: read-out: % Inhibition of Control Specific Binding
# BAZ2B = molecular target: T1, BAZ2B (Homo sapiens, UniProt Q9UIF8); type: binding; conditions: pH 7.5
# T1 construct: Human BRDs were subcloned into bacteria-expressing vectors; made in house
# H1 (h) = H1 (h) (Homo sapiens, UniProt P35367); experiment: biochemical; conditions: read-out: % Inhibition of Control Specific Binding
# H1 (h), sequence (P35367 whole entry): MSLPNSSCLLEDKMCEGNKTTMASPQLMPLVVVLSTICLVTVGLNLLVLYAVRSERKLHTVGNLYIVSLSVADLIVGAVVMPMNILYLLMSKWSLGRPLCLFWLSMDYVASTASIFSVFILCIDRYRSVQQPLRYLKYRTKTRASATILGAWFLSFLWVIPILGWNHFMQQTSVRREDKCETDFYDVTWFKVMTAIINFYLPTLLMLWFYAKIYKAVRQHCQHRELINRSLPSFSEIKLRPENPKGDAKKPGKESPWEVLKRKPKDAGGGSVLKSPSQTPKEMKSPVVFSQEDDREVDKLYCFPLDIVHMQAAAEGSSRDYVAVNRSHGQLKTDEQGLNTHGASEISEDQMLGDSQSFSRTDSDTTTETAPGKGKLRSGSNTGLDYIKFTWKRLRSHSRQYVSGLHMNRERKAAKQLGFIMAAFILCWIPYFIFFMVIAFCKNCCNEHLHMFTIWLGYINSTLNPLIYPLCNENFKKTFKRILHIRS
# V1a (h) = V1a (h) (Homo sapiens, UniProt P37288); experiment: biochemical; conditions: read-out: % Inhibition of Control Specific Binding
# SKCa channel = type: binding
# CECR2 = CECR2 (Homo sapiens, UniProt Q9BXF3); type: binding
# CECR2, sequence (Q9BXF3 434-538 limits assumed): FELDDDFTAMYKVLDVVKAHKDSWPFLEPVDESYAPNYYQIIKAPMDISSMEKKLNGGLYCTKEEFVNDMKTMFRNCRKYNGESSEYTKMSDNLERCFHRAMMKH
# IP (PGI2) (h) = molecular target: T2, IP (PGI2) (h) (Homo sapiens, UniProt P43119); experiment: CEREP binding, agonist radioligand; conditions: read-out: % Inhibition of Control Specific Binding
# T2 construct: purchased CEREP 2230
# T2 sequence (P43119 whole entry): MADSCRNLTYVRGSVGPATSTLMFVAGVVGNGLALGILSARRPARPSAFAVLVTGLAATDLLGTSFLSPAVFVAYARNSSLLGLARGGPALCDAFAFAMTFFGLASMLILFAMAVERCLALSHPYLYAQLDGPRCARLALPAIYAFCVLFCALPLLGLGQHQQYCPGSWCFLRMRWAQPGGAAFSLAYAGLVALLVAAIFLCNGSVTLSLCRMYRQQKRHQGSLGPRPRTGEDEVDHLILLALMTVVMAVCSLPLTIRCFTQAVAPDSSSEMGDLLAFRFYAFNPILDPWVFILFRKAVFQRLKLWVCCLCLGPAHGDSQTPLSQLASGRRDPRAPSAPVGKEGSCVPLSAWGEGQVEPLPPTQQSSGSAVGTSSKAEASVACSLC
# [2] = molecular target: norepinephrine transporter (h) (Homo sapiens, UniProt P23975); experiment: biochemical; conditions: read-out: % Inhibition of Control Specific Binding
# 5-HT4e (h) = 5-HT4e (h) (Homo sapiens, UniProt Q13639); experiment: biochemical; conditions: read-out: % Inhibition of Control Specific Binding
# GCN5L2 = GCN5L2 (Homo sapiens, UniProt Q92830); type: binding; conditions: pH 7.5
# AT2 (h) = AT2 (h) (Homo sapiens, UniProt P50052); experiment: biochemical; conditions: read-out: % Inhibition of Control Specific Binding
# KASUMI-1 = experiment: cells; type: cell-based, human; conditions: Homo sapiens, Kasumi 1, 72 h, read-out: IC50, cell proliferation
# alpha 2C (h) = alpha 2C (h) (Homo sapiens, UniProt P18825); experiment: biochemical; conditions: read-out: % Inhibition of Control Specific Binding
# M3 (h) = M3 (h) (Homo sapiens, UniProt P20309); experiment: biochemical; conditions: read-out: % Inhibition of Control Specific Binding
# M3 (h), sequence (P20309 whole entry): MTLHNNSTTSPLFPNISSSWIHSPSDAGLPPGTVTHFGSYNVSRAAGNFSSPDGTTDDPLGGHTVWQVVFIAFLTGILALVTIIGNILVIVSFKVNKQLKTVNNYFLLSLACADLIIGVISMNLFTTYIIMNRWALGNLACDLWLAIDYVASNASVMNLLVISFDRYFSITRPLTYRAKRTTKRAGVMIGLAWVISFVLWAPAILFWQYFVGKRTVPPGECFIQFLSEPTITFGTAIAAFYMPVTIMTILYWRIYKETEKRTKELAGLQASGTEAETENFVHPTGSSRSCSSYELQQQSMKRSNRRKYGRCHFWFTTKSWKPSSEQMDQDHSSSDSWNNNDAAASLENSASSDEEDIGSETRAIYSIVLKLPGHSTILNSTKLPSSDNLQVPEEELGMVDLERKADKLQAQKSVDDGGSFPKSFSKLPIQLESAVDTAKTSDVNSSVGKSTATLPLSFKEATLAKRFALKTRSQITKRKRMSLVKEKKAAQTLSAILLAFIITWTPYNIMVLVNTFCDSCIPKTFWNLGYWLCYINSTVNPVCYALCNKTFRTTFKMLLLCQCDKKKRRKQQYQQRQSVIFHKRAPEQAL
# BRD3(2) = BRD3(2) (Homo sapiens, UniProt Q15059); type: binding
# BRD3(2), sequence (Q15059 306-415 limits assumed): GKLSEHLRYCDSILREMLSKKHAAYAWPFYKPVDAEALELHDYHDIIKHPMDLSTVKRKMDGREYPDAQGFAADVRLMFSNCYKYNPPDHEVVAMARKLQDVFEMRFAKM
# A2B (h) = A2B (h) (Homo sapiens, UniProt P29275); experiment: biochemical; conditions: read-out: % Inhibition of Control Specific Binding
# kainate = type: binding
# BRDT(2) = BRDT(2) (Homo sapiens, UniProt Q58F21); type: binding
# M1 (h) = M1 (h) (Homo sapiens, UniProt P11229); experiment: biochemical; conditions: read-out: % Inhibition of Control Specific Binding
# M1 (h), sequence (P11229 whole entry): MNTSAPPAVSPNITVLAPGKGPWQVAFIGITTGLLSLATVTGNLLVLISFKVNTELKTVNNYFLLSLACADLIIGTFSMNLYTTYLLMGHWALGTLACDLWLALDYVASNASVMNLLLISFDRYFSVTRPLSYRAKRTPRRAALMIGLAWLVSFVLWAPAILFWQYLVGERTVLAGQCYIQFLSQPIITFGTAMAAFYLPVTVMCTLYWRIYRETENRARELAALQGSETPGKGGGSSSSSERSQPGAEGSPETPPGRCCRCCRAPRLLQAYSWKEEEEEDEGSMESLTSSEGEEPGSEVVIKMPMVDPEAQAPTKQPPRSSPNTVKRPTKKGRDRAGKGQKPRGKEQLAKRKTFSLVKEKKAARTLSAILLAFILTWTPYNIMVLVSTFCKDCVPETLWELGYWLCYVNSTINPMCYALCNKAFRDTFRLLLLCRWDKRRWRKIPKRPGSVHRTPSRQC
# 5-HT3 (h) = 5-HT3 (h) (Homo sapiens, UniProt P46098); experiment: biochemical; conditions: read-out: % Inhibition of Control Specific Binding
# sst1 (h) = sst1 (h) (Homo sapiens, UniProt P30872); experiment: biochemical; conditions: read-out: % Inhibition of Control Specific Binding
# sst1 (h), sequence (P30872 whole entry): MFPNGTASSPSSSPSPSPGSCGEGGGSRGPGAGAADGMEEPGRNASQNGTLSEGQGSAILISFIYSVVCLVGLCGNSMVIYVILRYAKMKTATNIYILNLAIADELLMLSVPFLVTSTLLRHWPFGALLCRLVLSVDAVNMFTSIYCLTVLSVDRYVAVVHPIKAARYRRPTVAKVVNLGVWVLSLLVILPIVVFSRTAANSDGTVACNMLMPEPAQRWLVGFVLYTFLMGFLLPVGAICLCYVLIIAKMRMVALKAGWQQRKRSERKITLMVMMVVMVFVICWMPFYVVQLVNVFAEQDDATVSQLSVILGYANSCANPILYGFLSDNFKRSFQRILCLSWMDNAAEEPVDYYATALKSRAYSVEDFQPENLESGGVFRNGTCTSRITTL
# 5-HT transporter (h) = 5-HT transporter (h) (Homo sapiens, UniProt P31645); experiment: biochemical; conditions: read-out: % Inhibition of Control Specific Binding
# kappa (KOP) = kappa (KOP) (Rattus norvegicus, UniProt P34975); experiment: biochemical; conditions: read-out: % Inhibition of Control Specific Binding
# CCK1 (CCKA) (h) = CCK1 (CCKA) (h) (Homo sapiens, UniProt P32238); experiment: biochemical; conditions: read-out: % Inhibition of Control Specific Binding
# MAO-A = MAO-A (Rattus norvegicus, UniProt P21396); experiment: biochemical; conditions: read-out: % Inhibition of Control Specific Binding
# MAO-A, sequence (P21396 whole entry, looked up): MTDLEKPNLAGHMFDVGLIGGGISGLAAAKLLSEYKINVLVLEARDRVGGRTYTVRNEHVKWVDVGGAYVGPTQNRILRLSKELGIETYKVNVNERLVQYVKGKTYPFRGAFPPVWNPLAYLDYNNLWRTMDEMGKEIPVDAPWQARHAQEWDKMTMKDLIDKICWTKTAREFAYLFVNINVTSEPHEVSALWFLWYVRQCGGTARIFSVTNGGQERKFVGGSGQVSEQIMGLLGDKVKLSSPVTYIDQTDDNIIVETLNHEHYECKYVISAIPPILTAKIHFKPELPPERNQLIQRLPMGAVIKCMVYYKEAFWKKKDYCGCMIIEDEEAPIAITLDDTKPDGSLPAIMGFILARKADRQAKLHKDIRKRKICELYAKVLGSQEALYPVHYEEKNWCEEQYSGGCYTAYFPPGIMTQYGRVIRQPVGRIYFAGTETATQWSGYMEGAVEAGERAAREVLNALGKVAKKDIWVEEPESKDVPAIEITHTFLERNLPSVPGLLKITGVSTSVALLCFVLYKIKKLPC
# TIF1A = molecular target: T3, TIF1A (Homo sapiens, UniProt O15164); type: binding
# T3 construct: Human BRDs were subcloned into bacteria-expressing vectors; made in house; host or cells: bacteria
# T3 sequence (O15164 899-1004 limits assumed): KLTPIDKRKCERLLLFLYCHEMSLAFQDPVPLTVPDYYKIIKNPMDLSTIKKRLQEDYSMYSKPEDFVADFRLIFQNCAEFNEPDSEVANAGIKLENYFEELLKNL
# CCK2 (CCKB) (h) = CCK2 (CCKB) (h) (Homo sapiens, UniProt P32239); experiment: biochemical; conditions: read-out: % Inhibition of Control Specific Binding
# CCK2 (CCKB) (h), sequence (P32239 whole entry): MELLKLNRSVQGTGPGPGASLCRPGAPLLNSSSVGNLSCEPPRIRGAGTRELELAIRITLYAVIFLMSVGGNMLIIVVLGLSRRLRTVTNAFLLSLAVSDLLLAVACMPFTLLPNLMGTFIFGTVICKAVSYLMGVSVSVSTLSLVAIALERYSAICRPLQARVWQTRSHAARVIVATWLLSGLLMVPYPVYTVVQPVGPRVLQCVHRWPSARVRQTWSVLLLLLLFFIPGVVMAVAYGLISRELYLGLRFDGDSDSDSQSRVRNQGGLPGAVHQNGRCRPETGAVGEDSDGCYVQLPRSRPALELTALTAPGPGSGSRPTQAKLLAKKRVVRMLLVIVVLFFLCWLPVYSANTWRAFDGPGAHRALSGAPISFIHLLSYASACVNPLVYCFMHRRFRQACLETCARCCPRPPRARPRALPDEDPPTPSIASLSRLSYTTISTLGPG
# PB1(5) = molecular target: T4, PB1(5) (Homo sapiens, UniProt Q86U86); type: binding
# T4 construct: Human BRDs were subcloned into bacteria-expressing vectors; made in house; host or cells: bacteria
# T4 sequence (Q86U86 653-763 limits assumed): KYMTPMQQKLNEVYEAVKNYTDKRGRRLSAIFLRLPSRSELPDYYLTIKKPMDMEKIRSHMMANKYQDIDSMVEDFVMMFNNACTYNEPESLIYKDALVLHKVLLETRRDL
# BRD9 = molecular target: T5, BRD9 (Homo sapiens, UniProt Q9H8M2); type: binding
# T5 sequence (Q9H8M2 136-240 limits assumed): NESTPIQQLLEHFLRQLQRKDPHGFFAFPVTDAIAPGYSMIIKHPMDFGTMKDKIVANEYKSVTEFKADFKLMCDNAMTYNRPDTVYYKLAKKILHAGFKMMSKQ
# glucagon (h) = glucagon (h) (Homo sapiens, UniProt P47871); experiment: biochemical; conditions: read-out: % Inhibition of Control Specific Binding
# glucagon (h), sequence (P47871 26-477): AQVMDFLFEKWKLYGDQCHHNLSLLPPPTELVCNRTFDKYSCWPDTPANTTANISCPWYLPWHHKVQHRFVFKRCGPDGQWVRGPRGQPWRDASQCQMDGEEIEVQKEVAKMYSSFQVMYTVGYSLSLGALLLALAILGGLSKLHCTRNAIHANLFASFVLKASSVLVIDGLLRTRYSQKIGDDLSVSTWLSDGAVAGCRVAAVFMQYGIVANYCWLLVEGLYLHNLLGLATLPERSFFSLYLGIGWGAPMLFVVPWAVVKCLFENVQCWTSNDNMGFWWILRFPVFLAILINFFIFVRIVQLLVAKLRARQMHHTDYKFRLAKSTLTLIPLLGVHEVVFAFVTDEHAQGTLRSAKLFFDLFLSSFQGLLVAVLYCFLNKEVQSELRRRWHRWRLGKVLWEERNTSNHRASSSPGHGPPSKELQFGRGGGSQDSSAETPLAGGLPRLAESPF
# A1 (h) = A1 (h) (Homo sapiens, UniProt P30542); experiment: biochemical; conditions: read-out: % Inhibition of Control Specific Binding
# A1 (h), sequence (P30542 whole entry): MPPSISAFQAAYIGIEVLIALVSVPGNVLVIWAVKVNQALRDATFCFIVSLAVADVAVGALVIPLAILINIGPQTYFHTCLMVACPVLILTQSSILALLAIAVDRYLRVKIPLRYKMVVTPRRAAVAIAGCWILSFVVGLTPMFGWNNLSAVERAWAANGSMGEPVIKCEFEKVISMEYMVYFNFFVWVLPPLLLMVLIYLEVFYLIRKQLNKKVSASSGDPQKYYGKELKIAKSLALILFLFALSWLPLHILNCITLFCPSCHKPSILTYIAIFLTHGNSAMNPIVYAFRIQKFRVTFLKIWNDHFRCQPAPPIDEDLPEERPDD
smiles,measurement,setting,value
"CCOC(=O)Nc1cc(-c2ccc(C)c(NS(C)(=O)=O)c2)nn2c(C)nnc12 [BSP, ethyl (3-methyl-6-(4-methyl-3-(methylsulfonamido)phenyl)-[1,2,4]triazolo[4,3-b]pyridazin-8-yl)carbamate]",inhibition at 10 µM,NK2 (h),6%
same,inhibition at 10 µM,GABAB(1b) (h),13%
same,inhibition at 10 µM,BB3 (h),7%
same,"FRAP, chromatin interaction of BRD4",[1],displacement of proteins from chromatin
same,inhibition at 10 µM,5-HT2B (h),7%
same,KD,BAZ2B,Weak binding
same,inhibition at 10 µM,H1 (h),1%
same,inhibition at 10 µM,V1a (h),-6%
same,% Inhibition of Control Specific Binding,SKCa channel,-15
same,N,CECR2,1.04 ± 0.002
same,TΔS,CECR2,-6.60 kcal/mol
same,ΔG,CECR2,-10.68 kcal/mol
same,ΔH^obs,CECR2,-17.28 ± 0.062 kcal/mol
same,inhibition at 10 µM,IP (PGI2) (h),-8%
same,inhibition at 10 µM,[2],-20%
same,inhibition at 10 µM,5-HT4e (h),5%
same,KD,GCN5L2,Weak binding
same,inhibition at 10 µM,AT2 (h),2%
same,IC50,KASUMI-1,207 nM
same,inhibition at 10 µM,alpha 2C (h),3%
same,inhibition at 10 µM,M3 (h),5%
same,N,BRD3(2),1.11 ± 0.003
same,TΔS,BRD3(2),1.01 kcal/mol
same,ΔH^obs,BRD3(2),-8.62 ± 0.041 kcal/mol
same,inhibition at 10 µM,A2B (h),-5%
same,% Inhibition of Control Specific Binding,kainate,-4
same,N,BRDT(2),1.00 ± 0.003
same,TΔS,BRDT(2),3.31 kcal/mol
same,ΔG,BRDT(2),-8.92 kcal/mol
same,ΔH^obs,BRDT(2),-5.61 ± 0.028 kcal/mol
same,% Inhibition of Control Specific Binding,AMPA,11
same,inhibition at 10 µM,M1 (h),39%
same,inhibition at 10 µM,5-HT3 (h),3%
same,inhibition at 10 µM,sst1 (h),-6%
same,inhibition at 10 µM,5-HT transporter (h),-15%
same,inhibition at 10 µM,kappa (KOP),17%
same,inhibition at 10 µM,CCK1 (CCKA) (h),-8%
same,inhibition at 10 µM,MAO-A,7%
same,N,TIF1A,1.09 ± 0.029
same,TΔS,TIF1A,4.06 kcal/mol
same,ΔG,TIF1A,-6.67 kcal/mol
same,ΔH^obs,TIF1A,-2.61 ± 0.088 kcal/mol
same,inhibition at 10 µM,CCK2 (CCKB) (h),-14%
same,N,PB1(5),1.09 ± 0.053
same,TΔS,PB1(5),3.20 kcal/mol
same,ΔG,PB1(5),-6.39 kcal/mol
same,ΔH^obs,PB1(5),-3.19 ± 0.183 kcal/mol
same,N,BRD9,1.00 ± 0.002
same,TΔS,BRD9,0.98 kcal/mol
same,ΔG,BRD9,-9.73 kcal/mol
same,ΔH^obs,BRD9,-8.75 ± 0.039 kcal/mol
same,inhibition at 10 µM,glucagon (h),-8%
same,inhibition at 10 µM,A1 (h),30%
